Holding throughout (format): cell-based
Details in all cases: Hepatitis C virus

The subject of test [1] is HCV genotype 1a replicon, NS5A Q30R. As to the kind of experiment: Transient replication assay, GT1a NS5A Q30R.
In test [2] the test system is GT2a-6a-EUKH2 replicon. As to the kind of experiment: Stable replicon assay, comparison to daclatasvir, GT2a-6a-EUKH2. An excerpt:
(§1) The plasmid pSG-hRlucNeo-JFH1 was generated from pSG-Neo-JFH1 (Kato et al. 2003, Gastroentrology 125:1808-1817). A fragment containing the JFH-1 5′ NTR-hRluc-Neo gene and two unique restriction sites (AgeI and PmeI) was synthesized (Integrated DNA Technologies, Coralville, Iowa). The resulting plasmid was digested with AgeI and PmeI and the excised fragment (5′NTR-hRluc-Neo) was ligated into pSG-Neo-JFH1 digested with the same enzymes to generate pSG-hRlucNeo-JFH1. To allow expression of heterologous NS5A sequences, an NS5A shuttle vector was generated from pSG-Neo-JFH1, in which the entire coding sequence of NS5A plus the first eight codons of NS5B were replaced with an AfeI restriction site. This was done by Infusion cloning (Clontech, Mountain View, Calif.) from two PCR products that were generated using pSG-Neo-JFH1 as a template and the following primer pairs:
To express GT6a NS5A chimeric sequences a JFH1-based N-terminal NS5A (NS5A residues 2-107) shuttle vector was constructed by Infusion cloning from two PCR products that were generated using pSG-Neo-JFH1 as a template and the following primers: […]
Purified PCR products were inserted into an NsiI/SnaBI digested pSG-Neo-JFH1 vector by Infusion cloning following the manufacturer's instructions to generate pSG-Neo-JFH1-Nterm_5Ashuttle. […]
On the technique in general: In antiviral work, replicon cells carry a viral genome segment that copies itself.

The test system of test [3] is GT2a-3a-S52 replicon. Nature of the test: Stable replicon assay, comparison to daclatasvir, GT2a-3a-S52.
From the text: as §1, with “pairs: […]” for “pairs:”
Stable HCV replicon cell lines were grown in complete media (Dulbecco's modified Eagle medium [DMEM], 2 mM L-glutamine, 0.1 mM essential amino acids, 1 mM sodium pyruvate, 10% fetal bovine serum) with the addition 500 μg/ml […] (G418). […] For stable and transient replicon assays, luciferase activity of compound-treated cells was measured relative to DMSO-treated cells after 72 h incubation using RENILLA-GLO™ Luciferase Assay (Promega). […]

For test [4], the system named is HCV genotype 1a replicon, NS5A M28T. Nature of the test: Transient replication assay, GT1a NS5A M28T.

Take `COC(=O)N[C@H](C(=O)N1C[C@]2(CCCOC2)C[C@H]1c1ncc(-c2ccc(-c3ccc4c(ccc5nc([C@@H]6C[C@@H]7CCC[C@@H]7N6C(=O)[C@@H](NC(=O)OC)C(C)C)[nH]c54)c3)cc2)[nH]1)C(C)C` [Compound 16]: the EC50 (usually the concentration giving half of the maximal effect) in test [1] was determined as 12 pM; in test [2], 14 pM; in test [3], 540 pM; in test [4], 49 pM.

With `COC(=O)N[C@H](C(=O)N1CCC[C@H]1c1nc(-c2ccc(-c3ccc(-c4c[nH]c([C@@H]5CCCN5C(=O)[C@@H](NC(=O)OC)C(C)C)n4)cc3)cc2)c[nH]1)C(C)C` [Daclatasvir, reference compound], the EC50 in test [1] was found to be 3400 pM; in test [2], 143 pM; in test [3] it was 390 pM; in test [4], 3400 pM.

The record behind these values is US10407445B2, “Hepatitis C virus inhibitors” (ENANTA PHARMACEUTICALS, INC., priority 2013, dated 2019).
